This note sets out measurements from patent publication US11655217B2, “Pyrazole MAGL inhibitors” (H. Lundbeck A/S, priority 2017, dated 2023).

The target of one assay is MAGL (Mus musculus (Mouse), UniProt O35678). In words: Mouse brain proteomes from inhibitor treated mice (oral gavage, sacrificed 4 h after administration, ABPP analysis). The settings on record: 5 mg/kg oral gavage.
The next assay has as its target FAAH (Mus musculus (Mouse), UniProt O08914). Nature of the assay: Mouse brain proteomes from inhibitor treated mice (oral gavage, sacrificed 4 h after administration, ABPP analysis), FAAH. Conditions: 5 mg/kg oral gavage.

MAGL, sequence (O35678 whole entry): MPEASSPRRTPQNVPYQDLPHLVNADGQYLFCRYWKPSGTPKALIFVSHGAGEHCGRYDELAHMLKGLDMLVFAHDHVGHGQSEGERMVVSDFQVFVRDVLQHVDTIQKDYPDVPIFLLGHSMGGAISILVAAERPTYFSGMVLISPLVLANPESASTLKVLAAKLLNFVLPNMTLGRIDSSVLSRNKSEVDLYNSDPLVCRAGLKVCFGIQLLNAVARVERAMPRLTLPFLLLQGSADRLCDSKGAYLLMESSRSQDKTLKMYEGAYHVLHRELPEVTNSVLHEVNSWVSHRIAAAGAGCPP
FAAH, sequence (O08914 whole entry): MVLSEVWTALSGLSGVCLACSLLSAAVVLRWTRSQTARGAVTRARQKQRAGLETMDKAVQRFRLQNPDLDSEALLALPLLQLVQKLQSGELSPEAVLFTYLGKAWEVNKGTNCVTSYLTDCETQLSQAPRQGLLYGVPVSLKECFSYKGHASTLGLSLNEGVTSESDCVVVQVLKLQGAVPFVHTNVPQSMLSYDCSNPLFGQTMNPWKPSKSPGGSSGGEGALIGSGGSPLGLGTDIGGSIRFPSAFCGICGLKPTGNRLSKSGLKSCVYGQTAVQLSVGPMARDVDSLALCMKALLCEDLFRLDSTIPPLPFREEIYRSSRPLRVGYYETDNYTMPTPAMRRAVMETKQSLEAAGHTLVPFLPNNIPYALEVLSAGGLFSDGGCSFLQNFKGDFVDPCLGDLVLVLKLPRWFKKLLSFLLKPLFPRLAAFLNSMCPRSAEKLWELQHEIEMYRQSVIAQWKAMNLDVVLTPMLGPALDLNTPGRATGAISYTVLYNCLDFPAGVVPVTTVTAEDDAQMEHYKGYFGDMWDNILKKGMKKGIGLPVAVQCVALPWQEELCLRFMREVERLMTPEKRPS
Procedure for FAAH: (§1) Preparation of Mouse Brain Proteomes from Inhibitor Treated Mice.
(§2) Inhibitors were administered to wild-type C57Bl/6J by oral gavage in a vehicle of polyethylene glycol.
Procedure for MAGL: as §1, §2

For the compound `O=C(O)c1ccn(C(=O)N2CCN(Cc3ccc(C(F)(F)F)cc3N3CCCCC3)CC2)n1` [Example 100, 1-(4-(2-(piperidin-1-yl)-4-(trifluoromethyl)benzyl)piperazine-1-carbonyl)-1H-pyrazole-3-carboxylic acid], the “MAGL % inh. 5 mg/kg (mouse)” value at MAGL was “D (% inhibition is greater than or equal to 0% and less than 25%)”. Also, on FAAH, the “FAAH % inh. 5 mg/kg (mouse)” value is “D (% inhibition is greater than or equal to 0% and less than 25%)”.
With `O=C(O)c1nn(C(=O)N2CCC3(CCN(Cc4cc(Cl)ccc4C(F)(F)F)C3)CC2)cc1C(F)(F)F` [Example 148, 1-(2-(5-chloro-2-(trifluoromethyl)benzyl)-2,8-diazaspiro[4.5]decane-8-carbonyl)-4-(trifluoromethyl)-1H-pyrazole-3-carboxylic acid], the “MAGL % inh. 5 mg/kg (mouse)” value at MAGL is “D (% inhibition is greater than or equal to 0% and less than 25%)”. The “FAAH % inh. 5 mg/kg (mouse)” value on FAAH is “C (% inhibition is greater than or equal to 25% and less than 50%)”.
For the compound `O=C(O)c1nn(C(=O)N2CC3CN(Cc4ccc(N5CCCC5)cc4C(F)(F)F)CC3C2)cc1Cl` (stereo not shown) [Example 140, 4-chloro-1-(5-(4-(pyrrolidin-1-yl)-2-(trifluoromethyl)benzyl)octahydro-pyrrolo[3,4-c]pyrrole-2-carbonyl)-1H-pyrazole-3-carboxylic acid], at MAGL, the “MAGL % inh. 5 mg/kg (mouse)” value was “D (% inhibition is greater than or equal to 0% and less than 25%)”. For the same compound, the “FAAH % inh. 5 mg/kg (mouse)” value on FAAH was “D (% inhibition is greater than or equal to 0% and less than 25%)”.
As to `O=C(O)c1ccn(C(=O)N2CCC3(CCN(Cc4cc(Cl)ccc4C(F)(F)F)C3)CC2)n1` [Example 43, 1-(2-(5-chloro-2-(trifluoromethyl)benzyl)-2,8-diazaspiro[4.5]decane-8-carbonyl)-1H-pyrazole-3-carboxylic acid], on MAGL, the “MAGL % inh. 5 mg/kg (mouse)” value was “D (% inhibition is greater than or equal to 0% and less than 25%)”. Moreover, the “FAAH % inh. 5 mg/kg (mouse)” value on FAAH is “D (% inhibition is greater than or equal to 0% and less than 25%)”.
In the case of `COC1CCN(c2cc(C(F)(F)F)ccc2CN2CCN(C(=O)n3ccc(C(=O)O)n3)CC2)CC1` [Example 12, 1-(4-(2-(4-Methoxypiperidin-1-yl)-4-(trifluoromethyl)benzyl)piperazine-1-carbonyl)-1H-pyrazole-3-carboxylic Acid], the “MAGL % inh. 5 mg/kg (mouse)” value at MAGL was “D (% inhibition is greater than or equal to 0% and less than 25%)”. Moreover, the “FAAH % inh. 5 mg/kg (mouse)” value at FAAH is “D (% inhibition is greater than or equal to 0% and less than 25%)”.
As to `O=C(O)c1ccn(C(=O)N2CCN(Cc3ccc(C(F)(F)F)c(N4C5CCC4COC5)c3)CC2)n1` [Example 40, 1-(4-(3-(3-oxa-8-azabicyclo[3.2.1]octan-8-yl)-4-(trifluoromethyl)benzyl)piperazine-1-carbonyl)-1H-pyrazole-3-carboxylic acid], the “MAGL % inh. 5 mg/kg (mouse)” value at MAGL is “D (% inhibition is greater than or equal to 0% and less than 25%)”. In addition, at FAAH, the “FAAH % inh. 5 mg/kg (mouse)” value was “D (% inhibition is greater than or equal to 0% and less than 25%)”.
Regarding `O=C(O)c1ccn(C(=O)N2CCC3(CCCN3Cc3ccc(C(F)(F)F)cc3N3CCCC3)CC2)n1` [Example 93, 1-(1-(2-(pyrrolidin-1-yl)-4-(trifluoromethyl)benzyl)-1,8-diazaspiro[4.5]decane-8-carbonyl)-1H-pyrazole-3-carboxylic acid], at MAGL, the “MAGL % inh. 5 mg/kg (mouse)” value was “D (% inhibition is greater than or equal to 0% and less than 25%)”. The “FAAH % inh. 5 mg/kg (mouse)” value on FAAH was “D (% inhibition is greater than or equal to 0% and less than 25%)”.
As to `O=C(O)c1ccn(C(=O)N2CCN(Cc3ccc(C(F)(F)F)cc3N3CCN4CCC[C@@H]4C3)CC2)n1` [Example 48, (R)-1-(4-(2-(hexahydropyrrolo-[1,2-a]pyrazin-2(1H)-yl)-4-(trifluoromethyl)benzyl)piperazine-1-carbonyl)-1H-pyrazole-3-carboxylic acid], the “MAGL % inh. 5 mg/kg (mouse)” value on MAGL is “D (% inhibition is greater than or equal to 0% and less than 25%)”. For the same compound, on FAAH, the “FAAH % inh. 5 mg/kg (mouse)” value was “D (% inhibition is greater than or equal to 0% and less than 25%)”.
As to `O=C(O)c1nn(C(=O)N2CCC3(CCN(Cc4cc(Cl)ccc4C(F)(F)F)C3)CC2)cc1Cl` [Example 133, 4-chloro-1-(2-(5-chloro-2-(trifluoromethyl)benzyl)-2,8-diazaspiro[4.5]decane-8-carbonyl)-1H-pyrazole-3-carboxylic acid], at MAGL, the “MAGL % inh. 5 mg/kg (mouse)” value was “D (% inhibition is greater than or equal to 0% and less than 25%)”. The “FAAH % inh. 5 mg/kg (mouse)” value at FAAH was “D (% inhibition is greater than or equal to 0% and less than 25%)”.
With `O=C(O)c1ccn(C(=O)N2C[C@H]3C[C@H](OCc4cccc(Oc5ccc(Cl)cc5)c4)C[C@H]3C2)n1` [Example 158, 1-(trans-5-((3-(4-chlorophenoxy)benzyl)oxy)octa-hydrocyclopenta[c]pyrrole-2-carbonyl)-1H-pyrazole-3-carboxylic acid], on MAGL, the “MAGL % inh. 5 mg/kg (mouse)” value was “D (% inhibition is greater than or equal to 0% and less than 25%)”. Further, the “FAAH % inh. 5 mg/kg (mouse)” value on FAAH was “D (% inhibition is greater than or equal to 0% and less than 25%)”.
Turning to `CN(Cc1ccc(C(F)(F)F)cc1-c1nccs1)C1(C)CCN(C(=O)n2ccc(C(=O)O)n2)CC1` [Example 10, 1-(4-methyl-4-(methyl(2-(thiazol-2-yl)-4-(trifluoromethyl)benzyl)amino)piperidine-1-carbonyl)-1H-pyrazole-3-carboxylic Acid], the “MAGL % inh. 5 mg/kg (mouse)” value at MAGL was “D (% inhibition is greater than or equal to 0% and less than 25%)”. Moreover, the “FAAH % inh. 5 mg/kg (mouse)” value on FAAH was “D (% inhibition is greater than or equal to 0% and less than 25%)”.
As for `CC(C)(O)C1CCN(c2cc(C(F)(F)F)ccc2CN2CCN(C(=O)n3ccc(C(=O)O)n3)CC2)CC1` [Example 109, 1-(4-(2-(4-(2-hydroxypropan-2-yl)piperidin-1-yl)-4-(trifluoromethyl)benzyl)piperazine-1-carbonyl)-1H-pyrazole-3-carboxylic acid], at MAGL, the “MAGL % inh. 5 mg/kg (mouse)” value was “D (% inhibition is greater than or equal to 0% and less than 25%)”. Moreover, the “FAAH % inh. 5 mg/kg (mouse)” value on FAAH is “D (% inhibition is greater than or equal to 0% and less than 25%)”.
With `O=C(O)c1ccn(C(=O)N2CCN(Cc3ccc(C(F)(F)F)cc3N3CC[C@@H](F)C3)CC2)n1` [Example 101, (R)-1-(4-(2-(3-fluoropyrrolidin-1-yl)-4-(trifluoromethyl)benzyl)piperazine-1-carbonyl)-1H-pyrazole-3-carboxylic acid], the “MAGL % inh. 5 mg/kg (mouse)” value on MAGL is “D (% inhibition is greater than or equal to 0% and less than 25%)”. Also, on FAAH, the “FAAH % inh. 5 mg/kg (mouse)” value was “D (% inhibition is greater than or equal to 0% and less than 25%)”.
Take `O=C(O)c1ccn(C(=O)N2CC3CN(Cc4cc(Cl)cc(C(F)(F)F)c4)CC3C2)n1` (stereo not shown) [Example 124, 1-(5-(3-chloro-5-(trifluoromethyl)benzyl)octahydro-pyrrolo[3,4-c]pyrrole-2-carbonyl)-1H-pyrazole-3-carboxylic acid]: the “MAGL % inh. 5 mg/kg (mouse)” value at MAGL is “D (% inhibition is greater than or equal to 0% and less than 25%)”. Besides, the “FAAH % inh. 5 mg/kg (mouse)” value on FAAH is “C (% inhibition is greater than or equal to 25% and less than 50%)”.
